Values quoted from earlier work, collected in patent US20250121105A1, “METHODS FOR TREATING CANCER USING COMBINATIONS OF PARP INHIBITORS AND ANTIBODY RADIOCONJUGATES” (ACTINIUM PHARMACEUTICALS, INC., priority 2019, published 2025).
Like-named read-outs stand apart in the source and are kept apart here.

Columns and labels:
[1] = tested on: glioblastoma cancer cells; settings: veliparib (ABT-888) plus ionizing radiation (IR)
[2] = order of magnitude only, stated in the background

Row | IC50 values (PARP; [2]) | IC50 values (PARP) | Compound | sensitivity of glioblastoma cancer cells to PARPi with ionizing radiation [1]
1 | nanomolar range |  | NC(=O)c1cccc2cn(-c3ccc([C@@H]4CCCNC4)cc3)nc12 [niraparib] | 
2 | nanomolar range |  | CNCc1ccc(-c2[nH]c3cc(F)cc4c3c2CCNC4=O)cc1 [rucaparib] | 
3 |  | nanomolar range | C[C@]1(c2nc3c(C(N)=O)cccc3[nH]2)CCCN1 [veliparib] | IR sensitizes glioblastoma cancer cells to PARPi

Row | Compound | IC50 values (PARP; [2]) | IC50 values (PARP) | sensitivity of glioblastoma cancer cells to PARPi with ionizing radiation [1]
4 | Cn1ncnc1[C@H]1c2n[nH]c(=O)c3cc(F)cc(c23)N[C@@H]1c1ccc(F)cc1 [talazoparib] | picomolar range |  | 
